Laboratory results: patent publication US10624897B2, “Chlorobenzene substituted azaaryl compounds” (TAIPEI MEDICAL UNIVERSITY, priority 2015, dated 2020)
Read-outs that look alike come from different tables or passages of the source.

Columns and labels:
HUVEC = experiment: MTT assay, viability of normal cells; type: cell-based, Human; settings: 72 hours, FIG. 1B
Procedure: (§1) Cell viability was assessed the MTT assay. […] Data are expressed as means±S.D. (***P<0.001 compares to control group).
(§2) Cells were cultured in RPMI-1640 (RT-112, KMS-11, SNU-16, HT-29, HCT-116, NCI—H520, Hep3B, PLC/PRF/5, HL-60, MOLT-4) and DMEM (HepG2, MCF-7, MDA-MB-231) with 10% FBS (v/v) and Penicillin/Streptomycin (100 U/ml). FU-DDLS-1 cell line was maintained in DMEM:F12 medium with 10% FBS. LiSa-2 cell line was maintained in IMDM/RPMI-1640 in a 4:1 ratio supplemented with 10% FBS, 2 mmol/L L-glutamine, and 0.1 mg/mL gentamicin. Human umbilical vein endothelial cells (HUVECs) were grown to confluence on 1% collagen, and maintained in 90% Medium 199 with 25 U/ml heparin, 30 μg/ml endothelial cell growth supplement (ECGS) adjusted to contain 1.5 g/L sodium bicarbonate, 10% FBS and Penicillin/Streptomycin (100 U/ml) Cultures were maintained at 37° C. in a humidified atmosphere of 5% CO2/95% air.
Cells were seeded in 96-well plates (5,000 cells/well) and incubated overnight for attachment, and were then treated with indicated agents in 10% FBS-supplemented medium for 72 hours. […] After removal of medium, the cells were lysed with 100 μL per well dimethyl sulfoxide (DMSO), and absorbance at 550 nm was measured with microplate reader. The relative cell viability (%) was expressed as a percentage relative to a DMSO control cells.

PIK3C2B = biological target: T1, PIK3C2B (Homo sapiens, UniProt O00750); experiment: Lipid kinase binding assay (Kd)
T1 construct: made in house; host or cells: E. coli BL21-derived host (T7 phage) or HEK-293
Procedure: (§3) Kinase assays. For most assays, kinase-tagged T7 phage strains were prepared in an E. coli host derived from the BL21 strain. E. coli were grown to log-phase and infected with T7 phage and incubated with shaking at 32° C. until lysis. The lysates were centrifuged and filtered to remove cell debris. The remaining kinases were produced in HEK-293 cells and subsequently tagged with DNA for qPCR detection. […] The liganded beads were blocked with excess biotin and washed with blocking buffer (SeaBlock (Pierce), 1% BSA, 0.05% Tween 20, 1 mM DTT) to remove unbound ligand and to reduce non-specific binding. […] All reactions were performed in polystyrene 96-well plates in a final volume of 0.135 ml. […] The kinase concentration in the eluates was measured by qPCR.
(§4) An 11-point 3-fold serial dilution of each test compound was prepared in 100% DMSO at 100× final test concentration and subsequently diluted to 1× in the assay (final DMSO concentration=1%). Most Kds were determined using a compound top concentration=30,000 nM.
(§5) Binding constants (Kds) were calculated with a standard dose-response curve using the Hill equation: […]
(§6) The Hill Slope was set to −1. Curves were fitted using a non-linear least square fit with the Levenberg-Marquardt algorithm.

PIK3CB = biological target: T2, PIK3CB (Homo sapiens, UniProt P42338); experiment: Lipid kinase binding assay (Kd)
T2 construct: made in house; host or cells: E. coli BL21-derived host (T7 phage) or HEK-293
Procedure: as §3, §4, §5, §6

PIP5K1A = biological target: T3, PIP5K1A (Homo sapiens, UniProt Q99755); experiment: Lipid kinase binding assay (Kd)
T3 construct: made in house; host or cells: E. coli BL21-derived host (T7 phage) or HEK-293
Procedure: as §3, §4, §5, §6

PIP5K2B = biological target: T4, PIP5K2B (Homo sapiens, UniProt P78356); experiment: Lipid kinase binding assay (Kd)
T4 construct: made in house; host or cells: E. coli BL21-derived host (T7 phage) or HEK-293
Procedure: as §3, §4, §5, §6

PIP5K1C = biological target: T5, PIP5K1C (Homo sapiens, UniProt O60331); experiment: Lipid kinase binding assay (Kd)
T5 construct: made in house; host or cells: E. coli BL21-derived host (T7 phage) or HEK-293
Procedure: as §3, §4, §5, §6

PIK3CD = biological target: T6, PIK3CD (Homo sapiens, UniProt O00329); experiment: Lipid kinase binding assay (Kd)
T6 construct: made in house; host or cells: E. coli BL21-derived host (T7 phage) or HEK-293
Procedure: as §3, §4, §5, §6

PIK3C2G = biological target: T7, PIK3C2G (Homo sapiens, UniProt O75747); experiment: Lipid kinase binding assay (Kd)
T7 construct: made in house; host or cells: E. coli BL21-derived host (T7 phage) or HEK-293
Procedure: as §3, §4, §5, §6

PIKFYVE = biological target: T8, PIKFYVE (Homo sapiens, UniProt Q9Y2I7); experiment: Lipid kinase binding assay (Kd)
T8 construct: made in house; host or cells: E. coli BL21-derived host (T7 phage) or HEK-293
Procedure: as §3, §4, §5, §6

PIP5K2C = biological target: T9, PIP5K2C (Homo sapiens, UniProt Q8TBX8); experiment: Lipid kinase binding assay (Kd)
T9 construct: made in house; host or cells: E. coli BL21-derived host (T7 phage) or HEK-293
Procedure: as §3, §4, §5, §6

PIK3C3 = biological target: T10, PIK3C3 (Homo sapiens, UniProt Q8NEB9); experiment: Lipid kinase binding assay (Kd)
T10 construct: made in house; host or cells: E. coli BL21-derived host (T7 phage) or HEK-293
Procedure: as §3, §4, §5, §6

FGFR3(K650E) = biological target: T11, FGFR3(K650E) (Homo sapiens, UniProt P22607, K650E); experiment: Kinase binding assay (Kd), mutant FGFR3
T11 construct: made in house; host or cells: E. coli BL21-derived host (T7 phage) or HEK-293
Procedure: as §3, §4, §5, §6
(§7) The compound and assay method are similar to those mentioned in Example 45.

FGFR3(V555M) = biological target: T12, FGFR3(V555M) (Homo sapiens, UniProt P22607, V555M); experiment: Kinase binding assay (Kd), mutant FGFR3
T12 construct: made in house; host or cells: E. coli BL21-derived host (T7 phage) or HEK-293
Procedure: as §3, §4, §5, §6, §7

[1] = test system: RT-112, RT4 and T24 cells; experiment: MTT assay, bladder cancer cells with different FGFR3 status; type: cell-based; settings: 72 h, FIG. 1A
Procedure: as §1
BGJ-398, a known selective inhibitor of FGFR1 to FGFR3, was included as a reference compound. […] The major downstream pathways of FGFRs are MAPK, PI3K/AKT, and PLC-γ. RT-112 cells, which express FGFR3-TACC3, are reportedly unable to activate PLCγ due to a deletion of the last exon of FGFR3.

HL-60 = experiment: MTT assay, cell viability; type: cell-based; settings: Homo sapiens; HL-60, AML, 72 hours; read-out: IC50 (μM, Mean ± SD)
Procedure: as §2
(§8) Cells were seeded in 96-well plates (5,000 cells/well) and incubated overnight for attachment, and were then treated with indicated agents in 10% FBS-supplemented medium for 72 hours. The medium was replaced with MTT (0.5 mg/mL) at 37° C. for 1 hours. After removal of medium, the cells were lysed with 100 μL per well dimethyl sulfoxide (DMSO), and absorbance at 550 nm was measured with microplate reader. The relative cell viability (%) was expressed as a percentage relative to a DMSO control cells.

SNU-16 = experiment: MTT assay, cell viability; type: cell-based; settings: 72 hours
Procedure: as §2, §8

PLC/PRF/5 = experiment: MTT assay, cell viability; type: cell-based; settings: PLC5, 5 uM, 72 hours
Procedure: as §2, §8

Hep3B = experiment: MTT assay, cell viability; type: cell-based; settings: 5 uM, 72 hours
Procedure: as §2, §8

HT-29 = experiment: MTT assay, cell viability; type: cell-based; settings: Homo sapiens; HT-29, Colorectal, 72 hours; read-out: IC50 (μM, Mean ± SD)
Procedure: as §2, §8

RT-112 = experiment: MTT assay, cell viability; type: cell-based; settings: 72 hours
Procedure: as §2, §8

RT-112 cells = experiment: Cell cycle distribution by flow cytometry; type: cell-based; settings: 48 h to 72 h, FIG. 3A
RT-112 tumor xenografts = settings: for Tumor growth inhibition (%): i.p., nude mice
Procedure: Eight-week-old female athymic nude mice were group-housed in the TMU Laboratory Animal Center (Taipei, Taiwan) under conditions of constant photoperiod (12 h light/12 h dark at 21-0023° C. and 60-85% humidity) with ad libitum access to sterilized food and water. […] Tumors were measured weekly using calipers. Tumor volume (mm3) was calculated from w2×½ (w=width, 1=length in mm of the tumor).

T9 sequence (Q8TBX8 whole entry): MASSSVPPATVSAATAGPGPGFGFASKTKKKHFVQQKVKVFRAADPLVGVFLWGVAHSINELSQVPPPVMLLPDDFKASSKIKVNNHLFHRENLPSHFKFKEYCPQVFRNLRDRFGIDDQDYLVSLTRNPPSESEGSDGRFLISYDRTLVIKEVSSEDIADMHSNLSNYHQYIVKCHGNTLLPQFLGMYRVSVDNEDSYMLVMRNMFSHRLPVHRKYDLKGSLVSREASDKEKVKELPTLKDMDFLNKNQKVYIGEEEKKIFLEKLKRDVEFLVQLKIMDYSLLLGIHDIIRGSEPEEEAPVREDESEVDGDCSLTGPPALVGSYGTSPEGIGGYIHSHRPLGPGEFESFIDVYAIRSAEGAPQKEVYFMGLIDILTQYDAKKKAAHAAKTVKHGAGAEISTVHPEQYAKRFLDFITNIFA
T6 sequence (O00329 whole entry): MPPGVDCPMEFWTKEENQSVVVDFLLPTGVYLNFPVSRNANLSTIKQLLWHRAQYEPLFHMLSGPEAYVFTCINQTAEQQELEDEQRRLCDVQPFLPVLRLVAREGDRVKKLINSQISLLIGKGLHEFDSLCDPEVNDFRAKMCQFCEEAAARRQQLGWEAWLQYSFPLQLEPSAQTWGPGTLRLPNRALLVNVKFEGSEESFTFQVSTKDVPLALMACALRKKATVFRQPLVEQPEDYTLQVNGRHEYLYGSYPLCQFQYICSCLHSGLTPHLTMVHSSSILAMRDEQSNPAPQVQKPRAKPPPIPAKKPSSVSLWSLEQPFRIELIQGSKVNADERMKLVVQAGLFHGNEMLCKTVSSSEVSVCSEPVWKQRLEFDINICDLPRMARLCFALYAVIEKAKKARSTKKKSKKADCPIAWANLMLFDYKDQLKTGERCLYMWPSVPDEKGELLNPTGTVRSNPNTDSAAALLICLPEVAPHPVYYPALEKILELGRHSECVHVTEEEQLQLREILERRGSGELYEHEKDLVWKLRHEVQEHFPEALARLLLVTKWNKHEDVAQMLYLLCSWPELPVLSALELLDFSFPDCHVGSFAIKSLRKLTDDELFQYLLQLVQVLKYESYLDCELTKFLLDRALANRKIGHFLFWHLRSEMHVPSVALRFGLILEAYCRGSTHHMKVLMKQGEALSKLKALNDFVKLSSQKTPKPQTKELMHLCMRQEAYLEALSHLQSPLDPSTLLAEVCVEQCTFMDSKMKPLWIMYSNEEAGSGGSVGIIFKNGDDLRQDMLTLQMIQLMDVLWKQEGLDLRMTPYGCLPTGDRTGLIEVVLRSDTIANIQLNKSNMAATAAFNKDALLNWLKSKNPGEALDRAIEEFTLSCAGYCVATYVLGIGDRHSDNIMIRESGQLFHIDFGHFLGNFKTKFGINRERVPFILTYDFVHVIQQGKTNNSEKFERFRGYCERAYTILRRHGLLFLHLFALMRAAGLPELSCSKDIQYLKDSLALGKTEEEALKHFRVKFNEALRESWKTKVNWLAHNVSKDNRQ
T2 sequence (P42338 whole entry): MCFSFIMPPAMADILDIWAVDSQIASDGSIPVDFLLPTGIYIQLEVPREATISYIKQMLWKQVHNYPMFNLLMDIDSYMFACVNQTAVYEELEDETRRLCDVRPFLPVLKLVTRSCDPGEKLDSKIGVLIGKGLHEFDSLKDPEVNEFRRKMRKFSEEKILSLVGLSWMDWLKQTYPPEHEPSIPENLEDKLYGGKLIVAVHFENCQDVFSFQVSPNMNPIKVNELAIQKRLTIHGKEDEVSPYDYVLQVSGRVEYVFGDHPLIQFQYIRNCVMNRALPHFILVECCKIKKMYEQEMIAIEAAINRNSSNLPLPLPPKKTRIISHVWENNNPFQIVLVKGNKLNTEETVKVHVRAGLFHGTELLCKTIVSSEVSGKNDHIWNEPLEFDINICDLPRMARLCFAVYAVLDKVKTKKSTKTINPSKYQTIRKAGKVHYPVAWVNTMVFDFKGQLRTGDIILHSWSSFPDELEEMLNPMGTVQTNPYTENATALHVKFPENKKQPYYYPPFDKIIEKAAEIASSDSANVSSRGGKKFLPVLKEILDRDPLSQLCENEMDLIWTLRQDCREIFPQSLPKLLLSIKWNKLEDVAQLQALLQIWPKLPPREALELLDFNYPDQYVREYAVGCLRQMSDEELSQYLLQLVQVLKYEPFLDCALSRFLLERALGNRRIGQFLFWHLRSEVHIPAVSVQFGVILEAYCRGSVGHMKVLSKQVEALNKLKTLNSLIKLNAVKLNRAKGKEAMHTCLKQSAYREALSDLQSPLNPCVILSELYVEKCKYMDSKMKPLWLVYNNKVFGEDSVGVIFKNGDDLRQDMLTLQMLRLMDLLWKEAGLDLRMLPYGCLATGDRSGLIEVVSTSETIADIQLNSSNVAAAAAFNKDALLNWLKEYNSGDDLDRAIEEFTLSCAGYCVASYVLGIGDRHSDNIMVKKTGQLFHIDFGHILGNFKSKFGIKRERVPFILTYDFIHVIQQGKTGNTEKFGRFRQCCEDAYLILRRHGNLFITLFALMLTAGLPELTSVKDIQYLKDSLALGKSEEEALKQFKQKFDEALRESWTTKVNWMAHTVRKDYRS
T11 sequence (P22607 23-806 K650E): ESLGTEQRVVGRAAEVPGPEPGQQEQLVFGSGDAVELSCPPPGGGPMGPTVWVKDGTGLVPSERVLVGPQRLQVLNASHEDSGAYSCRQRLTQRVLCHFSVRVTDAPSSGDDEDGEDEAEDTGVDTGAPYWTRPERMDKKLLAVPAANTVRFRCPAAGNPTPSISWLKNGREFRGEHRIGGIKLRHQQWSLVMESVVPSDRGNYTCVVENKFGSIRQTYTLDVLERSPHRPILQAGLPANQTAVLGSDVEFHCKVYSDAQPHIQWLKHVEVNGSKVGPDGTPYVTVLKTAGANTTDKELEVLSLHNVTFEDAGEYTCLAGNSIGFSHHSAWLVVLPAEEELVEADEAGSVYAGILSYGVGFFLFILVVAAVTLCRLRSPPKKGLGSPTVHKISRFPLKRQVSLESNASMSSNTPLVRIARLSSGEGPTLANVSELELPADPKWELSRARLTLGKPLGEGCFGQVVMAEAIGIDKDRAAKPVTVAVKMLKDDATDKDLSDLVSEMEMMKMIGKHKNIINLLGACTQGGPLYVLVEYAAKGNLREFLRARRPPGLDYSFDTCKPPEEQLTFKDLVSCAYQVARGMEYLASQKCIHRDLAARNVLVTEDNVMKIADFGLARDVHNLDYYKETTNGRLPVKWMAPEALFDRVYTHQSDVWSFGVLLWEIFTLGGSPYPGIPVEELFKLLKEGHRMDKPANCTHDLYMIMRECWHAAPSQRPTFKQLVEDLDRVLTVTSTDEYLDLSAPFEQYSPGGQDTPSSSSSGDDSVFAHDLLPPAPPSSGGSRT
T1 sequence (O00750 whole entry): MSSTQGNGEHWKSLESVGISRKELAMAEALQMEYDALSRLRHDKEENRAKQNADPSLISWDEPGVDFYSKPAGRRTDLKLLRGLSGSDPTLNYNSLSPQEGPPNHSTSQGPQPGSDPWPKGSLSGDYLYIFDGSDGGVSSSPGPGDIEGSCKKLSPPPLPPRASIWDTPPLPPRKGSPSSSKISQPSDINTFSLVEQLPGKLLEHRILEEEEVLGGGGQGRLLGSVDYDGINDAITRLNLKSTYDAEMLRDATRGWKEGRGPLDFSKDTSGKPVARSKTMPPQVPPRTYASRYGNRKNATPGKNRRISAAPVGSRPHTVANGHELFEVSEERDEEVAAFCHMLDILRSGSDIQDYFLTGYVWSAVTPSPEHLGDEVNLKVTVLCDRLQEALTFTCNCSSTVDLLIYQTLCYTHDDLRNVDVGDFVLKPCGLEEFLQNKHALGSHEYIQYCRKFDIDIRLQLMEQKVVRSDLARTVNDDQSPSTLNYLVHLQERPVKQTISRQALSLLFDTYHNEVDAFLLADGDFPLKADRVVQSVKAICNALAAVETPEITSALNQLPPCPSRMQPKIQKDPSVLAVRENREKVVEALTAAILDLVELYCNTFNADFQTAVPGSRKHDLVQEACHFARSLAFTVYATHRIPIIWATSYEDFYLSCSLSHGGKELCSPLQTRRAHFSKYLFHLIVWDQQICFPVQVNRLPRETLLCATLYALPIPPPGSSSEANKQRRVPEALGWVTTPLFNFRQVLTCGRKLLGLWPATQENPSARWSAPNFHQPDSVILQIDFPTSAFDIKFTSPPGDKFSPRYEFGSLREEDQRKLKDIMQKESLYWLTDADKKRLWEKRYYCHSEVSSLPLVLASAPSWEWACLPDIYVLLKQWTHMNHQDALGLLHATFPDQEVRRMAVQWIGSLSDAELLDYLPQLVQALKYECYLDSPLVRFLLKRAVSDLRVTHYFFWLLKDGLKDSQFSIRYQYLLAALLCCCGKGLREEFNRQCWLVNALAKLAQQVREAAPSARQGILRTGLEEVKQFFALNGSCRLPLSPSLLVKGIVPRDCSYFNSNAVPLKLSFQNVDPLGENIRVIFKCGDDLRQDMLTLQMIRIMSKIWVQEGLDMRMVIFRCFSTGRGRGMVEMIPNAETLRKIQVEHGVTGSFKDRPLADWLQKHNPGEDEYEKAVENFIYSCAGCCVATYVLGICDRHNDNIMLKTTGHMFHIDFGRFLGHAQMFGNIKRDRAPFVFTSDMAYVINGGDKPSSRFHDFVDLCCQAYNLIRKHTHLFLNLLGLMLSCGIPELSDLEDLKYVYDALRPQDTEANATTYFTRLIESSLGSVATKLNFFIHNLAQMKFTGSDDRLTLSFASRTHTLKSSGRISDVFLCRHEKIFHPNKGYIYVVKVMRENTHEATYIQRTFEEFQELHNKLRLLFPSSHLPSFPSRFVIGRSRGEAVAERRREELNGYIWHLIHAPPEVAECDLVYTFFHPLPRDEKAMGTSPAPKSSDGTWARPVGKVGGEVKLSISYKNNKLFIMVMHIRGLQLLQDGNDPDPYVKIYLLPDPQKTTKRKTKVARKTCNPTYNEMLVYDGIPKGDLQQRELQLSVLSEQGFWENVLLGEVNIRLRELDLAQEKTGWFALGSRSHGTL
T12 sequence (P22607 23-806 V555M): as the sequence (P22607 23-806 K650E) above, with V533M, E628K counted along it

- Kd (PIK3C2B): 1 µM
- Kd (PIK3CB): > 10 µM
- Kd (PIP5K1A): > 10 µM
- Kd (PIP5K2B): > 10 µM
- Kd (PIP5K1C): > 10 µM
- Kd (PIK3CD): > 10 µM
- Kd (PIK3C2G): > 10 µM
- Kd (PIKFYVE): 2.6 µM
- Kd (PIP5K2C): > 10 µM
- Kd (PIK3C3): 0.00053 µM
- Kd (FGFR3(K650E)): 0.24 µM
- Kd (FGFR3(V555M)): > 10 µM
- IC50 (HL-60): 4.72 ± 1.46 µM
- IC50 (HT-29): 2.49 ± 0.29 µM
SMILES: CCN1CCN(c2ccc(Nc3ncnc(N(C)C(=O)Nc4c(Cl)c(OC)c(Cl)c(OC)c4Cl)n3)cc2)CC1 [MPT0L145, 1-(4-((4-(4-ethylpiperazin-1-yl)phenyl)amino)-1,3,5-triazin-2-yl)-1-methyl-3-(2,4,6-trichloro-3,5-dimethoxyphenyl)urea]
- toxicity in normal cells (HUVEC) compared with BGJ-398 (HUVEC): significantly lower toxicity
- sensitivity of FGFR3-TACC3 fusion cells (RT-112, RT4) versus normal FGFR3 status (T24) [1]: more sensitive
- Viability (% of control cells) SNU-16 (5 uM) Mean (SNU-16): 36.9 % of control cells
- Viability (% of control cells) PLC5 (5 uM) Mean (PLC/PRF/5): 20.6 % of control cells
- Viability (% of control cells) Hep3B (5 uM) Mean (Hep3B): 66.2 % of control cells
- Viability (% of control cells) RT-112 (5 uM) Mean (RT-112; RT-112, 5 uM): 33.4 % of control cells
- Viability (% of control cells) RT-112 (10 uM) Mean (RT-112; RT-112, 10 uM): 8.5 % of control cells
- accumulation of the sub-G1 phase (apoptotic cell death) (RT-112 cells): did not promote accumulation of the sub-G1 phase
- Tumor growth inhibition (%) (RT-112 tumor xenografts; 5 mg/kg/d): 61.4%
- Tumor growth inhibition (%) (RT-112 tumor xenografts; 10 mg/kg/d): 74.6%
- tumor growth (RT-112 tumor xenografts; 5 and 10 mg/kg/d i.p., dose-dependent): significantly suppressed tumor growth
